Test results reported in patent US20130184272A1, “DIABETES THERAPEUTIC AGENT” (TAKEDA PHARMACEUTICAL COMPANY LIMITED, priority 2010, published 2013).

What was measured:
[1] = tested on: Mouse-derived myoblast line C2C12 cell; assay: Cell differentiation promoting activity in myoblast (creatine kinase activity); format: cell-based; conditions: Mus musculus, C2C12, 48 h, 2 days, without compound = 100%, read-out: creatine kinase activating action (%); for activity at 0.01 µM: compound at 0.01 μM (**); for activity at 1 µM: compound at 1 μM
Method: • (1) Mouse-derived myoblast line C2C12 cell (Dainippon Pharmaceutical Co., Ltd.) was subcultured in a high glucose Eagle's modified Dulbecco's medium (GIBCO) added with 10% calf fetal bovine serum (GIBCO), 100 unit/mL penicillin and 100 μg/mL streptomycin (hereinafter to be referred to as a growth medium), plated at 5000 cells/cm^2 and cultured at 37° C., under 5% CO2. • (2) When the cells reached subconfluence of not less than 90%, the medium was exchanged with high glucose Eagle's modified Dulbecco's medium (GIBCO) added with (i) 2% horse serum (GIBCO) and (ii) penicillin, streptomycin and a test compound (hereinafter to be referred to as a differentiation medium) and the cells were cultured for 2 days. To the control group was added DMSO solution instead of the test compound. • (3) The cells were washed with PBS, 0.5% NP-40 solution was added, and the cells were lysed by freeze-thawing. The cell extract was centrifuged and the creatine kinase activity in the supernatant was measured as an index of muscle differentiation. The creatine kinase activity was measured using CPKII Test Wako (Wako Pure Chemical Industries, Ltd.) according to the manual of the kit.
The numerical values in Table 1 show creatine kinase activity of the compound addition group when the creatine kinase activity without addition of the compound is 100%, and * means measurement with addition of the compound at 10 μM, ** at 0.01 μM, and others at 1 μM.

[2] = tested on: Female KKA^y mice; assay: Anti-diabetes action and dyslipidemia improving effect in KKA^y mouse; format: in vivo; conditions: 2 weeks, control group = 100
Method: Female KKA^y mice (12-week-old, CLEA Japan, Inc.) were bred while allowing free ingestion of both feed and water. The mice were bred for acclimation with powder CE-2 (CLEA Japan, Inc.) from 2 weeks before administration of the compound. The body weight and plasma markers were measured and, at 14 weeks of age, they were divided such that the measured values were uniform with those of the control group. The compound of Reference Example 1, 2, 7, 8, 9 or 22 was administered for 2 weeks in a mixed feed (0.01-0.0001%). On the last day, plasma levels of glucose, insulin, total cholesterol and neutral lipid were measured.

[3] = tested on: C2C12 cell; assay: Sugar metabolism promoting activity in muscle cell (lactic acid production); format: cell-based, Mouse; conditions: Mus musculus, 48 h; compound 1 μM, 2 days, C2C12 myotubes; without drug = 100%; read-out: lactic acid production promoting action (%)
Method: • (1) In the same manner as in Example 1, C2C12 cell was cultured in a growth medium. After reaching subconfluence of not less than 90%, the medium was exchanged with a differentiation medium and the cells were cultured for about 7 days while exchanging the medium every 2 or 3 days until the cells differentiated to form a myotube. • (2) After confirmation of myotube formation under a microscope, the test compound (1 μM) was added to a differentiation medium and cultured for 2 days. The cells were washed with Krebs-Ringer HEPES phosphate buffer (10 mM HEPES, pH 7.4, 131 mM NaCl, 4.7 mM KCl, 2.5 mM CaCl2—2H2O, 1.2 mM MgSO4—7H2O, 1.2 mM KH2PO4), the medium was exchanged with Krebs-Ringer HEPES phosphate buffer added with 5 mM glucose, 0.2% fatty acid-free bovine serum albumin, and cultured at 37° C. for 4 hr. • (3) The lactic acid concentration of the culture supernatant was measured using Detarminer LA kit (Kyowa Medex Co., Ltd.).
The numerical values in Table 2 show the concentration of the compound addition group with the concentration of lactic acid without addition of a drug as 100%.

SMILES | activity at 0.01 µM [1] [%] | plasma glucose (%) ([2]; mixed feed dose 0.0003 %) | plasma neutral lipid (%) ([2]; mixed feed dose 0.0003 %) | plasma total cholesterol (%) ([2]; mixed feed dose 0.0003 %) | activity at 1 µM [3] [%] | activity at 1 µM [1] [%] | other results
Cn1ncc2c1-c1c(Oc3ccc(F)cc3)sc(C(N)=O)c1CC2 [Ref. Ex. 2, 8-(4-fluorophenoxy)-1-methyl-4,5-dihydro-1H-thieno[3,4-g]indazole-6-carboxamide] | 175 | 49.0 ± 7.1 | 40.4 ± 6.6 | 62.4 ± 7.1 | 159 | – | –
Cn1ncc2c1-c1c(Oc3ccc(OC(F)(F)F)cc3)sc(C(N)=O)c1CC2 [Ref. Ex. 8, 1-methyl-8-[4-(trifluoromethoxy)phenoxy]-4,5-dihydro-1H-thieno[3,4-g]indazole-6-carboxamide] | 190 | 78.2 ± 22.2 | 72.2 ± 22.1 | 85.7 ± 11.5 | 274 | – | –
Cn1ncc2c1-c1c(Oc3ccc4c(c3)OCO4)sc(C(N)=O)c1CC2 [Ref. Ex. 9, 8-(1,3-benzodioxol-5-yloxy)-1-methyl-4,5-dihydro-1H-thieno[3,4-g]indazole-6-carboxamide] | 171 | – | – | – | 196 | – | plasma glucose (%) ([2]; mixed feed dose 0.001 %): 42.9 ± 3.7%; plasma insulin (%) ([2]; mixed feed dose 0.001 %): 13.7 ± 21.1%; plasma neutral lipid (%) ([2]; mixed feed dose 0.001 %): 51.0 ± 11.9%; plasma total cholesterol (%) ([2]; mixed feed dose 0.001 %): 74.5 ± 14.4%
CC(=O)Nc1ccc(Oc2sc(C(N)=O)c3c2-c2c(cnn2C)CC3)cc1 [Ref. Ex. 22, 8-[4-(acetylamino)phenoxy]-1-methyl-4,5-dihydro-1H-thieno[3,4-g]indazole-6-carboxamide] | 195 | 60.9 ± 27.1 | 42.3 ± 7.2 | 71.0 ± 7.3 | 311 | – | –
Cn1ncc2c1-c1c(Oc3ncccn3)sc(C(N)=O)c1CC2 [Ref. Ex. 37, 1-methyl-8-(pyrimidin-2-yloxy)-4,5-dihydro-1H-thieno[3,4-g]indazole-6-carboxamide] | – | – | – | – | 255 | 129 | –
Cc1cccc(Oc2sc(C(N)=O)c3c2-c2c(cnn2C)CC3)n1 [Ref. Ex. 38, 1-methyl-8-[(6-methylpyridin-2-yl)oxy]-4,5-dihydro-1H-thieno[3,4-g]indazole-6-carboxamide] | – | – | – | – | 157 | 152 | –
Cn1ncc2c1-c1c(S(=O)(=O)c3ccc4c(c3)OCO4)sc(C(N)=O)c1CC2 [Ref. Ex. 39, 8-(1,3-benzodioxol-5-ylsulfonyl)-1-methyl-4,5-dihydro-1H-thieno[3,4-g]indazole-6-carboxamide] | – | – | – | – | 207 | 176 | –
Cn1ncc2c1-c1c(Oc3cccnc3OCCN3CCCC3=O)sc(C(N)=O)c1CC2 [Ref. Ex. 40, 1-methyl-8-({2-[2-(2-oxopyrrolidin-1-yl)ethoxy]pyridin-3-yl}oxy)-4,5-dihydro-1H-thieno[3,4-g]indazole-6-carboxamide] | – | – | – | – | 120 | 120 | –
CN(CCOc1ncccc1Oc1sc(C(N)=O)c2c1-c1c(cnn1C)CC2)c1ccccc1 [Ref. Ex. 41, 1-methyl-8-[(2-{2-[methyl(phenyl)amino]ethoxy}pyridin-3-yl)oxy]-4,5-dihydro-1H-thieno[3,4-g]indazole-6-carboxamide] | – | – | – | – | 120 | 130 | –
COCCOc1ccc(Oc2sc(C(N)=O)c3c2-c2c(cnn2C)CC3)cn1 [Ref. Ex. 42, 8-{[6-(2-methoxyethoxy)pyridin-3-yl]oxy}-1-methyl-4,5-dihydro-1H-thieno[3,4-g]indazole-6-carboxamide] | 179 | – | – | – | 319 | – | –
